Consider four compounds from PubChem BioAssay AID504472 (NMMLSC, 2011).

Calls of active or inactive are those of the source.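 Rule for the calls: active = compound moving the GFP-tagged Gln3 signal into the yeast nucleus, as rapamycin does; inactive = the rest.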

The assay relates to S. cerevisiae Gln3-GFP nuclear translocation, microscopy. Briefly: Gln3-GFP nuclear translocation in yeast, SAR follow-up, yeast TOR pathway modulator project, S. cerevisiae, GFP fusion, microscopy (AID 504472). The conditions noted are these: at 30 µM; stronger effect = higher value.
As to `CNc1nc(N)c([N+](=O)[O-])c(Nc2cccc(Cl)c2)n1`, the nuclear translocation (1=yes) is 0 (inactive).

Take `CNc1nc(N)c([N+](=O)[O-])c(Nc2cccc(F)c2)n1`: the nuclear translocation (1=yes) was 0 (inactive).

Take `CNc1nc(N)c([N+](=O)[O-])c(Nc2ccccc2)n1`: the nuclear translocation (1=yes) is 0 (inactive).

Take `CO[C@H]1C[C@@H]2CC[C@@H](C)[C@@](O)(O2)C(=O)C(=O)N2CCCC[C@H]2C(=O)O[C@H]([C@H](C)C[C@@H]2CC[C@@H](O)[C@H](OC)C2)CC(=O)[C@H](C)/C=C(\C)[C@@H](O)[C@@H](OC)C(=O)[C@H](C)C[C@H](C)/C=C/C=C/C=C/1C`: the nuclear translocation (1=yes) is 1.
